Assay results as given in patent US20060293241A1, “Pharmaceutical composition comprising a factor VII polypeptide and epsilon-aminocaproic acid” (Novo Nordisk HealthCare A/G, priority 2001, published 2006).

Assays:
[1] = test system: Normal human plasma (NHP); test: Clot lysis assay (Example 2), clot survival in NHP and NHP diluted 1:2 with plasma expander; format: biochemical; conditions: in combination with 40 nM FVIIa
Experimental: Clot lysis assay: Normal human plasma (NHP) and NHP diluted 1:2 with plasma expander Macrodex or HES 200/0.5 used clinically for maintaining blood pressure under surgical procedures was mixed with lipidated recombinant TF (Innovin 1:60,000), CaCl2 10 mM, +/−FVIIa 40 nM, phosfatidylcolin/phosphateidylserine vesicles 6 μM, tPA […] and +/−the indicated doses of e-aminocaproic acid (EACA). Clot survival was measured as the time for clot start until the time for clot lysis.

[2] = test system: Normal human plasma diluted 10-fold; test: Clot lysis assay (Example 1), turbidity at 650 nm; format: biochemical; conditions: in the presence of 10 nM FVIIa; t-PA 8 nM
Experimental: Clot lysis assay: Normal human plasma diluted 10-fold with buffer (20 mM HEPES, 150 mM NaCl, 5 mM CaCl, pH 7.4) containing Innovin (Dade Behring, 2000-fold dilution), rFVIIa (Novo Nordisk A/S Bagsvaerd, Denmark, various concentrations) and t-PA (American Diagnostica, 8 nM) was added to 96-well ELISA plates and turbidity at 650 nm was measured over time at room temperature. Where indicated, epsilon-Aminocaproic Acid (Sigma, various concentrations) was included.

## NCCCCCC(=O)O [EACA, epsilon-aminocaproic acid]
[1]
  effect on clot survival time: increase in clot survival time
[2]
  effect on clot lysis time: further prolongation of the clot lysis time
  epsilon-Aminocaproic Acid concentration at which effect on clot lysis time was optimal: 1 µM
